The target in this test is GTPase HRas (Homo sapiens, UniProt P01112). As to the kind of experiment: Inhibition of human recombinant p21RAS by GDPX assay.

SMILES strings stand for the structures. pIC50: −log10 of the molar value.

Sequence of GTPase HRas (P01112 whole entry): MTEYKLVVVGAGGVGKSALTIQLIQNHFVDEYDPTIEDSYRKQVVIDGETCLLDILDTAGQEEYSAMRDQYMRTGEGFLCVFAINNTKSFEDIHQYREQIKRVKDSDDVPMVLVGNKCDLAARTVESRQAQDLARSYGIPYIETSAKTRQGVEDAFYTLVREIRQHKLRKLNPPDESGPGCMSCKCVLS

For the compound `CC(C)C(C)(C)C(C)CC[C@@H](C)[C@H]1CC[C@H]2[C@@H]3C[C@H](OS(=O)(=O)O)C4C[C@H](OS(=O)(=O)O)[C@@H](OS(=O)(=O)O)C[C@]4(C)[C@H]3CC[C@]12C` (stereo partly specified) [OPHIRAPSTANOL TRISULFATE], the pIC50 (as a rule, the IC50 on a negative log10 scale, so that one unit is a factor of ten) was 5.59.

The values are drawn from ChEMBL document CHEMBL1148096, “Ophirapstanol trisulfate, a new biologically active steroid sulfate from the deep water marine sponge Topsentia ophiraphidites” (J Nat Prod, 1994).
